Source: PubChem BioAssay AID602356 (Sanford-Burnham Center for Chemical Genomics, 2012)
“And” between values parts separate entries of the source, which are not always exact repeats. Equal values may be shown once. The source made the active and inactive calls. How the calls were made is not given here.

Each compound was assayed against Neurotensin receptor type 1 (Homo sapiens) (UniProt P30989) (assay: neurotensin receptor 1 activation – imaging, image-based, set 3, SAR follow-up (AID 602356)). Conditions: NTR1 image-based agonist assay, cellular imaging.
Chain of Neurotensin receptor type 1 (Homo sapiens) (P30989 whole entry, looked up): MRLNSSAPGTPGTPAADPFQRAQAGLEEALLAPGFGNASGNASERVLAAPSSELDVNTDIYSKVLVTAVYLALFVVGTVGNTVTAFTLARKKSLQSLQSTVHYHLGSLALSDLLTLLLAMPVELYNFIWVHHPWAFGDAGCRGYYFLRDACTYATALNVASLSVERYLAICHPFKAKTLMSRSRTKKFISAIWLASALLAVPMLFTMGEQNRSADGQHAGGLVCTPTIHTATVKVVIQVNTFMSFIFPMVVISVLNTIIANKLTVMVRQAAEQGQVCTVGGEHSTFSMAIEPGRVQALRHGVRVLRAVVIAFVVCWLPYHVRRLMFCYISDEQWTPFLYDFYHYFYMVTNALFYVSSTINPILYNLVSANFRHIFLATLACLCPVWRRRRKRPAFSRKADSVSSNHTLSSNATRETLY

Row | EC50 | SMILES
1 | 11.2 µM | COc1ccc2c3nnc(-c4ccc(C)cc4)c-3cn(Cc3ccc(C)cc3)c2c1
2 | 7.65 µM | COc1cc2nc(C(C)C)nc(N3CCN(c4ccccc4OC)CC3)c2cc1OC
3 | 13.8 µM | COc1cc2nc(Cc3ccccc3)nc(N3CCN(c4ccccc4OC)CC3)c2cc1OC
4 | inactive | COc1cccc(OC)c1-c1nc(C(=O)NC2(C(=O)O)C3CC4CC(C3)CC2C4)cn1-c1ccnc2cc(Cl)ccc12 (stereo not given)
5 | 3.76 µM | COc1cccc(OC)c1-c1nc(C(=O)N[C@@H](CC(C)C)C(=O)O)cn1-c1ccnc2ccccc12
6 | 16.2 µM | COc1cc2c3nnc(-c4ccc(C)c(C)c4)c-3cn(Cc3ccc(F)cc3)c2cc1OC
7 | > 80 µM (inactive) | COc1cccc(OC)c1-c1cc(C(=O)O)nn1-c1ccnc2cc(Cl)ccc12
8 | inactive | COc1cc2c3nnc(-c4ccc(F)cc4)c-3cn(CC3CC3)c2cc1OC
9 | 5.17 µM | CC(C)C[C@H](NC(=O)c1cn(-c2ccnc3cc(Cl)ccc23)c(-c2c(Cl)cccc2Cl)n1)C(=O)O
10 | > 80 µM (inactive) | COc1cccc(OC)c1-c1cc(C(=O)NC2(C(=O)O)C3CC4CC(C3)CC2C4)nn1-c1ccc(C(=O)N(C)CCCN(C)C)cc1C(C)C (stereo not given)
11 | 7.29 µM | Fc1ccc(Cn2cc3c(-c4ccc(F)cc4)nnc-3c3cc4c(cc32)OCO4)cc1
12 | 6.2 µM | COc1cc2c3nnc(-c4ccc(C)c(C)c4)c-3cn(Cc3ccccc3)c2cc1OC
13 | 5.82 µM | COc1cc2c3nnc(-c4ccc(F)cc4)c-3cn(Cc3ccc(C)cc3C)c2cc1OC
14 | 15.8 µM | COc1ccc2c3nnc(-c4ccc(C)cc4)c-3cn(Cc3ccccc3)c2c1
15 | > 80 µM (inactive) | COc1ccccc1-c1nc(C(=O)N[C@@H](CC(C)C)C(=O)O)cn1-c1ccnc2ccccc12
16 | > 80 µM (inactive) | COc1ccc(-c2nnc3c4ccccc4n(Cc4ccncc4)cc2-3)cc1
17 | inactive | Cc1ccc(Cn2cc3c(-c4ccc(C)cc4)nnc-3c3cc4c(cc32)OCO4)cc1
18 | 4.15 µM | COc1cc2c3nnc(-c4ccc(Cl)cc4)c-3cn(Cc3ccccc3)c2cc1OC
19 | 15.1 µM | COc1cc2nc(CC(C)C)nc(N3CCN(c4ccccc4OC)CC3)c2cc1OC
20 | 16.6 µM | CCCc1nc(N2CCN(c3ccccc3OC)CC2)c2cc(OC)c(OC)cc2n1
21 | 1.44 µM | Cc1ccc(-c2nnc3c4cc5c(cc4n(Cc4ccccc4)cc2-3)OCO5)cc1C
22 | > 80 µM (inactive) | COc1ccc2c(c1)c1nnc(-c3ccc(F)cc3)c-1cn2Cc1ccc(C)cc1
23 | 16.4 µM | Cc1ccc(Cn2cc3c(-c4ccc(C)c(C)c4)nnc-3c3cc4c(cc32)OCO4)cc1

Row | EC50 | SMILES
24 | > 80 µM (inactive) | COc1cc2nc(-c3ccccc3)nc(N3CCN(c4ccc(F)cc4)CC3)c2cc1OC
25 | > 80 µM (inactive) | CC(C)C[C@H](NC(=O)c1cn(-c2ccnc3ccccc23)c(-c2ccccc2)n1)C(=O)O
26 | inactive | Cc1ccc(-c2nnc3c4cc5c(cc4n(Cc4ccc(F)cc4)cc2-3)OCO5)cc1C
27 | > 80 µM (inactive) | COc1ccc(-c2nnc3c4ccccc4n(Cc4ccc(C)cc4)cc2-3)cc1
28 | 2.18 µM and 1.89 µM | COc1cc2nc(C3CC3)nc(N3CCN(c4ccccc4OC)CC3)c2cc1OC
29 | 5.01 µM | COc1ccccc1-c1cc(C(=O)N[C@@H](CC(C)C)C(=O)OC(C)(C)C)nn1-c1ccnc2cc(Cl)ccc12
30 | 17.7 µM | COc1cc2nc(C3CCC3)nc(N3CCN(c4ccccc4F)CC3)c2cc1OC
31 | 5.21 µM | COc1ccc(-c2nnc3c4cc(OC)c(OC)cc4n(Cc4ccc(C)cc4)cc2-3)cc1
32 | 8.05 µM | CCOc1ccc(-c2nnc3c4cc(OC)c(OC)cc4n(Cc4ccc(F)cc4)cc2-3)cc1
33 | 7.03 µM | C=Cc1nc(N2CCN(c3ccccc3OC)CC2)c2cc(OC)c(OC)cc2n1
34 | 19.9 µM | COc1cc2c3nnc(-c4ccccc4)c-3cn(Cc3ccccc3)c2cc1OC
35 | inactive | COc1cc2nc(C3CC3)nc(N3CCN(Cc4ccc(C)cc4)CC3)c2cc1OC
36 | 9.12 µM | Fc1ccc(Cn2cc3c(-c4ccc(Cl)cc4)nnc-3c3cc4c(cc32)OCO4)cc1
37 | 6.9 µM and 6.79 µM | COc1cc2c3nnc(-c4ccc(F)cc4)c-3cn(Cc3ccc(C)cc3)c2cc1OC
38 | 18.1 µM | COc1cc2c3nnc(-c4ccc(Cl)cc4)c-3cn(Cc3ccc(C)cc3)c2cc1OC
39 | 12.1 µM | COc1cc2nc(C3CCC3)nc(N3CCN(c4ccccc4)CC3)c2cc1OC
40 | > 80 µM (inactive) | CCOC(=O)c1cc(-c2c(OC)cccc2OC)n(-c2ccnc3cc(Cl)ccc23)n1
41 | 12.3 µM | COc1cc2c3nnc(-c4ccc(F)cc4)c-3cn(Cc3ccc(OC(F)(F)F)cc3)c2cc1OC
42 | 2.95 µM | COc1cc2c3nnc(-c4ccc(Cl)cc4)c-3cn(Cc3ccc(F)cc3)c2cc1OC
43 | > 80 µM (inactive) | COc1cc2c3nnc(-c4ccccc4)c-3cn(Cc3ccc(C)cc3)c2cc1OC
44 | 10 µM | COc1ccc2nc(C3CCC3)nc(N3CCN(c4ccccc4OC)CC3)c2c1
45 | inactive | COc1ccccc1-c1nc(C(=O)N[C@@H](CC(C)C)C(=O)O)cn1-c1ccnc2cc(Cl)ccc12
